We go through 39 compounds from US8822468B2 (Novartis AG, priority 2008, dated 2014).

pIC50: −log10 of the molar value.

In this experiment the target is T1, cMET receptor tyrosine kinase (GST-cMET (969-1390)) (Homo sapiens, UniProt P08581).
T1 construct: made in house
T1 sequence (P08581 969-1390): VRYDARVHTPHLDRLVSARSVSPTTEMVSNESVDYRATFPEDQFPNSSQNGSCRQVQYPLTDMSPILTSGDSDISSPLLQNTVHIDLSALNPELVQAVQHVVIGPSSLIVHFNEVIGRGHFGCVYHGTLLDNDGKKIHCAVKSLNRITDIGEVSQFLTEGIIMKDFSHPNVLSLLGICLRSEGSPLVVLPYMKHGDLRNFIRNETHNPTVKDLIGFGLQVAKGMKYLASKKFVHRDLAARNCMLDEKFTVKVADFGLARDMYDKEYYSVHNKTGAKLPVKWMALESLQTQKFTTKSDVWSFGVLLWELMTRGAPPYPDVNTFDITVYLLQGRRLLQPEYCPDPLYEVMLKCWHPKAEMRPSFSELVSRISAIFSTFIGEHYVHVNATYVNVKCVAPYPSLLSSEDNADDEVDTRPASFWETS
The experiment is described as follows: EPK cMET profiling assay (LanthaScreen TR-FRET antibody based kinase phosphorylation assay). Type of experiment: biochemical. The settings on record: purified recombinant GST-cMET (969-1390), 2 μM ATP, 50 nM Fluorescein-PolyEAY, 60 minutes at room temperature; read-out: c-Met IC50. In short, it runs like this: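 GST-cMET cytoplasmic domain (969-1390), 0.3 nM, phosphorylated 50 nM fluorescein-PolyEAY with 2 µM ATP, Mg2+/Mn2+, 0.6% DMSO, 60 min at room temperature. Stopped with EDTA; Tb-PY20 antibody TR-FRET single end-point read. Final compound concentrations 10 to 0.003 µM, 8 points.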
A general note: Time-resolved FRET reads energy transfer from a long-lived donor to a nearby acceptor.
Broadly, the pIC50 is the IC50 on a negative log10 scale, so that one unit is a factor of ten. For `CC1CCCCN1c1ccc2ncc(Cc3ccc4ncccc4c3)n2n1` (stereo not drawn) [Example 111, 6-[6-(2-Methyl-piperidin-1-yl)-imidazo[1,2-b]pyridazin-3-ylmethyl]-quinoline], the pIC50 is 6.47.
The same measure for `Clc1cccc(Sc2ccc3ncc(Cc4ccc5ncccc5c4)n3n2)c1` [Example 112, 6-[6-(3-Chloro-phenylsulfanyl)-imidazo[1,2-b]pyridazin-3-ylmethyl]-quinoline]: 6.66; for `Clc1cccc(Oc2ccc3ncc(Cc4ccc5ncccc5c4)n3n2)c1` [Example 113, 6-[6-(3-Chloro-phenoxy)-imidazo[1,2-b]pyridazin-3-ylmethyl]-quinoline]: 7.08; for `FC(F)(F)CNc1ccc2ncc(Cc3ccc4ncccc4c3)n2n1` [Example 114, (3-Quinolin-6-ylmethyl-imidazo[1,2-b]pyridazin-6-yl)-(2,2,2-trifluoro-ethyl)-amine]: 7.25.
Under `c1cnc2ccc(Cc3cnc4ccc(-n5ccnc5)nn34)cc2c1` [Example 115, 6-(6-Imidazol-1-yl-imidazo[1,2-b]pyridazin-3-ylmethyl)-quinoline] stands 7.02; under `Cc1nccn1-c1ccc2ncc(Cc3ccc4ncccc4c3)n2n1` [Example 116, 6-[6-(2-Methyl-imidazol-1-yl)-imidazo[1,2-b]pyridazin-3-ylmethyl]-quinoline], 6.01; under `c1ccc(CN2CCC(Nc3ccc4ncc(Cc5ccc6ncccc6c5)n4n3)C2)cc1` (stereo not drawn) [Example 117, (1-Benzyl-pyrrolidin-3-yl)-(3-quinolin-6-ylmethyl-imidazo[1,2-b]pyridazin-6-yl)-amine], 6.20.
The same measure for `Cc1cn(-c2ccc3ncc(Cc4ccc5ncccc5c4)n3n2)cn1` [Example 118, 6-[6-(4-Methyl-imidazol-1-yl)-imidazo[1,2-b]pyridazin-3-ylmethyl]-quinoline]: 6.66; for `O=C1CCN(c2ccc3ncc(Cc4ccc5ncccc5c4)n3n2)CC1` [Example 120, 1-(3-Quinolin-6-ylmethyl-imidazo[1,2-b]pyridazin-6-yl)-piperidin-4-one]: 7.16; for `Clc1cccc(Nc2ccc3ncc(Cc4ccc5ncccc5c4)n3n2)c1` [Example 121, (3-Chloro-phenyl)-(3-quinolin-6-ylmethyl-imidazo[1,2-b]pyridazin-6-yl)-amine]: 7.70.
Regarding `c1ccc(Nc2ccc3ncc(Cc4ccc5ncccc5c4)n3n2)cc1` [Example 122, Phenyl-(3-quinolin-6-ylmethyl-imidazo[1,2-b]pyridazin-6-yl)-amine], the pIC50 was 7.14.
The same measure for `CCOc1ccc2ncc(Cc3ccc4ncccc4c3)n2n1` [Example 123, 6-(6-ethoxy-imidazo[1,2-b]pyridazin-3-ylmethyl)-quinoline]: 7.06; for `F[C@@H]1CCN(c2ccc3ncc(Cc4ccc5ncccc5c4)n3n2)C1` [Example 124, 6-[6-((R)-3-fluoro-pyrrolidin-1-yl)-imidazo[1,2-b]pyridazin-3-ylmethyl]-quinoline]: 6.74.
Under `F[C@H]1CCN(c2ccc3ncc(Cc4ccc5ncccc5c4)n3n2)C1` [Example 125, 6-[6-((S)-3-Fluoro-pyrrolidin-1-yl)-imidazo[1,2-b]pyridazin-3-ylmethyl]-quinoline] stands 6.89.
Under `c1cnc2ccc(Cc3cnc4ccc(Nc5ccc(CN6CCCCC6)cc5)nn34)cc2c1` [Example 126, (4-Piperidin-1-ylmethyl-phenyl)-(3-quinolin-6-ylmethyl-imidazo[1,2-b]pyridazin-6-yl)-amine] stands 7.80; under `FC(F)(F)c1cccc(Nc2ccc3ncc(Cc4ccc5ncccc5c4)n3n2)c1` [Example 127, (3-Quinolin-6-ylmethyl-imidazo[1,2-b]pyridazin-6-yl)-(3-trifluoromethyl-phenyl)-amine], 7.05; under `Clc1ccccc1Nc1ccc2ncc(Cc3ccc4ncccc4c3)n2n1` [Example 128, (2-Chloro-phenyl)-(3-quinolin-6-ylmethyl-imidazo[1,2-b]pyridazin-6-yl)-amine], 7.54.
On to `c1cncc(Nc2ccc3ncc(Cc4ccc5ncccc5c4)n3n2)c1` [Example 129, Pyridin-3-yl-(3-quinolin-6-ylmethyl-imidazo[1,2-b]pyridazin-6-yl)-amine], for which the pIC50 is 7.16.
The same measure for `c1cnc2ccc(Cc3cnc4ccc(Nc5ccncn5)nn34)cc2c1` [Example 131, Pyrimidin-4-yl-(3-quinolin-6-ylmethyl-imidazo[1,2-b]pyridazin-6-yl)-amine]: 6.74; for `CCn1nccc1Nc1ccc2ncc(Cc3ccc4ncccc4c3)n2n1` [Example 132, (2-Ethyl-2H-pyrazol-3-yl)-(3-quinolin-6-ylmethyl-imidazo[1,2-b]pyridazin-6-yl)-amine]: 7.30; for `c1cnc2ccc(Cc3cnc4ccc(-n5cccn5)nn34)cc2c1` [Example 134, 6-(6-Pyrazol-1-yl-imidazo[1,2-b]pyridazin-3-ylmethyl)-quinoline]: 6.24.
Under `Clc1cccc(Nc2ccc3ncc(Cc4ccc5ncccc5c4)n3n2)c1Cl` [Example 136, (2,3-Dichloro-phenyl)-(3-quinolin-6-ylmethyl-imidazo[1,2-b]pyridazin-6-yl)-amine] stands 6.46; under `Fc1ccc(Nc2ccc3ncc(Cc4ccc5ncccc5c4)n3n2)cc1Cl` [Example 137, (3-Chloro-4-fluoro-phenyl)-(3-quinolin-6-ylmethyl-imidazo[1,2-b]pyridazin-6-yl)-amine], 7.00; under `CN(c1cccc(Cl)c1)c1ccc2ncc(Cc3ccc4ncccc4c3)n2n1` [Example 138, (3-Chloro-phenyl)-methyl-(3-quinolin-6-ylmethyl-imidazo[1,2-b]pyridazin-6-yl)-amine], 6.02.
The same measure for `CS(=O)(=O)c1cccc(Nc2ccc3ncc(Cc4ccc5ncccc5c4)n3n2)c1` [Example 139, (3-Methanesulfonyl-phenyl)-(3-quinolin-6-ylmethyl-imidazo[1,2-b]pyridazin-6-yl)-amine]: 6.89.
On to `COc1cccc(Nc2ccc3ncc(Cc4ccc5ncccc5c4)n3n2)c1` [Example 140, (3-Methoxy-phenyl)-(3-quinolin-6-ylmethyl-imidazo[1,2-b]pyridazin-6-yl)-amine], for which the pIC50 is 6.51.
Under `[2H]C([2H])(c1ccc2ncccc2c1)c1cnc2ccc(Cl)nn12` [Example 142, 6-[(6-Chloro-imidazo[1,2-b]pyridazin-3-yl)-dideutero-methyl]-quinoline] stands 6.68; under `[2H]C([2H])(c1ccc2ncccc2c1)c1cnc2ccc(-c3cnn(C)c3)nn12` [Example 143, 6{Dideutero-[6-(1-methyl-1H-pyrazol-4-yl)-imidazo[1,2-b]pyridazin-3-ylmethyl]}-quinoline], 7.36.
Take `O=C(NCCN1CCCC1)c1ccc(-c2ccc3ncc(Cc4ccc5ncccc5c4)n3n2)cc1Cl` [Example 144, 2-Chloro-N-(2-pyrrolidin-1-yl-ethyl)-4-(3-quinolin-6-ylmethyl-imidazo[1,2-b]pyridazin-6-yl)benzamide]: the negative-log IC50 (pIC50) is 8.49.
The same measure for `CN1CC(n2cc(-c3ccc4ncc(Cc5cc6cccnc6cc5F)n4n3)cn2)C1` [Example 146, 7-Fluoro-6-{6-[1-(1-methyl-azetidin-3-yl)-1H-pyrazol-4-yl]-imidazo[1,2-b]pyridazin-3-ylmethyl}-quinoline]: 7.17.
For `OCCN1CCC(n2cc(-c3ccc4ncc(Cc5cc6cccnc6cc5F)n4n3)cn2)CC1` [Example 147, 2-(4-{4-[3-(7-Fluoro-quinolin-6-ylmethyl)-imidazo[1,2-b]pyridazin-6-yl]-pyrazol-1-yl}-piperidin-1-yl)-ethanol], the pIC50 is 7.09.
Under `CCN1CCC(n2cc(-c3ccc4ncc(Cc5cc6cccnc6cc5F)n4n3)cn2)CC1` [Example 148, 6-{6-[1-(1-Ethyl-piperidin-4-yl)-1H-pyrazol-4-yl]-imidazo[1,2-b]pyridazin-3-ylmethyl}-7-fluoro-quinoline] stands 7.80.
Consider `Fc1cc2ncccc2cc1Cc1cnc2ccc(-c3cnn(C4CCN(CC(F)(F)F)CC4)c3)nn12` [Example 149, 7-Fluoro-6-(6-{1-[1-(2,2,2-trifluoro-ethyl)-piperidin-4-yl]-1H-pyrazol-4-yl}-imidazo[1,2-b]pyridazin-3-ylmethyl)-quinoline], for which the pIC50 was 7.51.
Under `Cn1cc(-c2ccc3ncc(Cc4ccc5[nH]ncc5c4)n3n2)cn1` [Example 150, 3-(1H-Indazol-5-ylmethyl)-6-(1-methyl-1H-pyrazol-4-yl)-imidazo[1,2-b]pyridazine] stands 7.25; under `Cn1cc(-c2ccc3ncc([C@H](O)c4ccc5ncccc5c4)n3n2)cn1` [Example 151, (R)-[6-(1-Methyl-1H-pyrazol-4-yl)-imidazo[1,2-b]pyridazin-3-yl]-quinolin-6-yl-methanol], 7.19.
The same measure for `Cn1cc(-c2ccc3ncc([C@@H](O)c4ccc5ncccc5c4)n3n2)cn1` [Example 152, (S)-[6-(1-Methyl-1H-pyrazol-4-yl)-imidazo[1,2-b]pyridazin-3-yl]-quinolin-6-yl-methanol]: 6.05; for `C=C(c1ccc2ncccc2c1)c1cnc2ccc(-c3cnn(C)c3)nn12` [Example 155, 6-{1-[6-(1-Methyl-1H-pyrazol-4-yl)-imidazo[1,2-b]pyridazin-3-yl]-vinyl}-quinoline]: 6.07; for `C[C@H](c1ccc2ncccc2c1)c1cnc2ccc(-c3cnn(C)c3)nn12` [Example 158, 6-{(R)-1-[6-(1-Methyl-1H-pyrazol-4-yl)-imidazo[1,2-b]pyridazin-3-yl]-ethyl}-quinoline]: 6.27.
The same measure for `C[C@@H](c1ccc2ncccc2c1)c1cnc2ccc(-c3cnn(C)c3)nn12` [Example 159, 6-{(S)-1-[6-(1-Methyl-1H-pyrazol-4-yl)-imidazo[1,2-b]pyridazin-3-yl]-ethyl}-quinoline]: 7.85.
